According to PubChem BioAssay (NCI):
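Dose response: 5 concentrations. Exposure: 48 h. Format: 96-well plates. Endpoint: linear interpolation; highest concentration if not reached. TGI marks complete inhibition of growth.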

What was measured:
Assay in all cases: NCI-60 cell line screen, 48 h
MDA-MB-435 = system: MDA-MB-435
CAKI-1 renal = system: CAKI-1 renal
BT-549 breast = system: BT-549 breast
HCT-15 colon = system: HCT-15 colon
IGROV1 ovarian = system: IGROV1 ovarian
A549 NSCLC = system: A549 NSCLC
DU-145 prostate = system: DU-145 prostate
HCC-2998 colon = system: HCC-2998 colon
T-47D breast = system: T-47D breast
LOX IMVI melanoma = system: LOX IMVI melanoma
RXF 393 renal = system: RXF 393 renal

Row | Compound | TGI (MDA-MB-435) [µM] | TGI (CAKI-1 renal) [µM] | TGI (BT-549 breast) [µM] | TGI (HCT-15 colon) [µM] | TGI (IGROV1 ovarian) [µM] | TGI (A549 NSCLC) [µM] | TGI (DU-145 prostate) [µM] | TGI (HCC-2998 colon) [µM] | TGI (T-47D breast) [µM] | TGI (LOX IMVI melanoma) [µM] | TGI (RXF 393 renal) [µM]
1 | C1CN(C23OC4(N5CCOCC5)C5C6CC(C7C6C4C72)C53)CCO1 (configuration not stated) | > 100 | > 100 | > 100 | > 100 | > 100 | > 100 | > 100 | > 100 | > 100 | > 100 | > 100
2 | CC[N+]1(C)CCC(O)(/C=C/c2ccc(Cl)c(Cl)c2)C(C(=O)/C=C/c2ccc(Cl)c(Cl)c2)C1 (configuration not stated) | 5.01 | 12.7 | 7.44 | 7.13 | 7.8 | 15.7 | 6.87 | 3.96 | 4.87 | 2.84 | 4.02
3 | CCOC(=O)C1C2C1C1C(C(=O)OCC)C21 (configuration not stated) | > 100 | > 100 | > 100 | > 100 | > 100 | > 100 | > 100 | > 100 | > 100 | > 100 | > 100
4 | NC(=S)NS(=O)(=O)c1ccc(Cl)cc1Cl | > 100 | > 100 | > 100 | > 100 | > 100 | > 100 | > 100 | > 100 | > 100 | > 100 | > 100
5 | O=C(O)c1cc2c(cc1CC(Cc1ccccc1)C(=O)O)CCC2 (configuration not stated) | > 100 | > 100 | > 100 | > 100 | > 100 | > 100 | > 100 | > 100 | > 100 | > 100 | > 100
6 | Cc1cc2nnn(C3CCCO3)c2cc1C (configuration not stated) | > 100 | > 100 | > 100 | > 100 | > 100 | > 100 | > 100 | > 100 | > 100 | – | > 100
7 | CCCS(=O)OC1C(C2COC(C)(C)O2)OC2OC(C)(C)OC21 (configuration not stated) | 23.4 | 28 | 24.5 | 41.6 | 33.2 | 49.6 | 47.3 | 32.6 | > 69.6 | 21.4 | 25.5
8 | O=C(n1c(=O)n(-c2ccc([N+](=O)[O-])cc2)c(=O)n1C(=O)C(Cl)(Cl)Cl)C(Cl)(Cl)Cl | > 100 | > 100 | > 100 | > 100 | > 100 | > 100 | > 100 | > 100 | > 100 | > 100 | > 100
9 | NC(=S)N1N=C(c2ccc3c(c2)CCC3)CC1c1ccccc1 (configuration not stated) | 96.9 | > 100 | 98.3 | 69.6 | > 100 | > 100 | 80.8 | 36.8 | 27.9 | > 100 | 28
10 | O=C(NC(Cc1c[nH]c2ccccc12)C(=O)O)/C(=C/c1ccccc1)NC(=O)c1ccccc1 (configuration not stated) | > 100 | > 100 | > 100 | > 100 | > 100 | > 100 | > 100 | > 100 | > 100 | > 100 | > 100
11 | NC(=O)CN1CCN(c2nc(N3CCCC3)c3nc(Cl)c(NCc4ccccc4)nc3n2)CC1 | 20.5 | > 50 | 19.5 | 17.3 | 25.5 | 35.2 | 28.8 | 15.4 | 20.7 | 16.5 | 16.2
12 | Cc1cc(C(C)(C)C)c(OCCCN2CCOCC2)c(C(C)(C)C)c1 | 38.2 | 34.5 | 31.9 | 32.7 | 34.2 | 32.5 | 34.1 | 30.3 | 34.1 | 36.5 | 31.9
13 | O=c1c2cc(Cl)ccc2n2nnc3ccc(NCCNCCO)c1c32 | 2.36 | 4.97 | 5.22 | 2.59 | 6.26 | 2.58 | 8.91 | 2.7 | 7.52 | 1.96 | 3.45
14 | CCCCCCCCCCCOCCC1C(C(C)OCCN2CCCC2)OC2OC(C)(C)OC21 (configuration not stated) | 3.51 | 6.52 | 7.76 | 4.35 | 6.59 | 11.5 | 11.3 | 4.83 | 4.8 | 2.93 | 7.3
15 | C=C1C(=O)O[C@H]2[C@@H](O)[C@H](C)CCC/C(C)=C/CC[C@@]3(C)O[C@@H]3C[C@@H]12 | 29.5 | 6.9 | 14.5 | 4.68 | 15.6 | > 60.9 | 19.1 | 26 | 12.3 | 19.3 | 16.4
16 | CN(C)CCCN1C(=O)N(CCCN(C)C)c2c3cc(O)ccc3nc3c([N+](=O)[O-])ccc1c23 | 36.2 | 78.2 | 33.7 | > 100 | 21.3 | 39.6 | 64 | 26.8 | 80.2 | 26.6 | 25.1
17 | NC(=O)Nc1n[nH]c(-c2ccccc2)n1 | > 100 | > 100 | > 100 | > 100 | > 100 | > 100 | > 100 | > 100 | > 100 | > 100 | > 100
18 | O=c1[nH]nc(Cc2ccc([N+](=O)[O-])cc2)[nH]1 | > 100 | > 100 | > 100 | > 100 | > 100 | > 100 | > 100 | > 100 | > 100 | > 100 | > 100
